From patent publication US7348427B2, “Antipathogenic benzamide compounds” (Genesoft Pharmaceuticals, Inc., priority 2001, dated 2008)

How the values were obtained:
[1] = system: Streptococcus pneumoniae (ATCC 51422, a penicillin resistant strain (PRSP)); experiment: MIC, NCCLS broth microdilution assay; format: cell-based; conditions: I = S. pneumoniae ATCC 51422
Summary of the method: (§1)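 Broth microdilution, NCCLS M7-A4/M11-A4/M27-T guidelines; readout = minimal inhibitory concentration. Candida: Manual of Clinical Microbiology method.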

[2] = system: Bacillus cereus (ATCC 11778); experiment: MIC, NCCLS broth microdilution assay; format: cell-based; conditions: A = B. cereus ATCC 11778
Summary of the method: as §1

[3] = system: Staphylococcus epidermidis (ATCC 12228); experiment: MIC, NCCLS broth microdilution assay; format: cell-based; conditions: G = S. epidermidis ATCC 12228
Summary of the method: as §1

[4] = system: Staphylococcus aureus (ATCC 13709, a methicillin sensitive strain (MSSA)); experiment: MIC, NCCLS broth microdilution assay; format: cell-based; conditions: E = S. aureus ATCC 13709
Summary of the method: as §1

[5] = system: Enterococcus faecium (ATCC 51559, a vancomycin resistant strain (VRE)); experiment: MIC, NCCLS broth microdilution assay; format: cell-based; conditions: D = E. faecium ATCC 51559
Summary of the method: as §1

[6] = system: Staphylococcus aureus (ATCC 27660, a methicillin resistant strain (MRSA)); experiment: MIC, NCCLS broth microdilution assay; format: cell-based; conditions: F = S. aureus ATCC 27660
Summary of the method: as §1

[7] = system: S. pneumoniae ATCC 49619; experiment: MIC, NCCLS broth microdilution assay; format: cell-based, Streptococcus pneumoniae; conditions: H = S. pneumoniae ATCC 49619
Summary of the method: (§2)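 MICs were determined by NCCLS broth microdilution following documents M7-A4 and M11-A4 (1997).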

[8] = biological target: dsDNA target sequence AATTAATCAT (352 bp fragment, Plasmid B); experiment: Quantitative DNase I footprint titration, dsDNA binding; conditions: 352 bp/B, 22° C., pH 7.0, read-out: Dissociation Constant Kd
[9] = system: E. faecalis ATCC 29212; experiment: MIC, NCCLS broth microdilution assay; format: cell-based, Enterococcus faecalis; conditions: C = E. faecalis ATCC 29212
Summary of the method: as §2

[10] = system: Candida albicans (ATCC 38247); experiment: Antifungal MIC assay; format: cell-based; conditions: B = C. albicans ATCC 38247
Summary of the method: as §1

[11] = system: methicillin resistant Staphylococcus aureus ATCC 33591; experiment: Murine neutropenic thigh model; format: in vivo; conditions: neutropenic female CF1 mice, 50 mg/kg intravenously two hours post infection, 6 hr after treatment
Protocol: A S. aureus ATCC 33591 culture was grown to log phase overnight and diluted in phosphate buffered saline (pH 7.2) to an optical density of about 0.1 at 600 nm, giving an approximate concentration of 10^8 cfu/mL. The suspension was diluted 1:100 in phosphate buffered saline (pH 7.2) for a final concentration of 10^6 cfu/mL.
Outbred female CF1 mice (approx. 20 gram body weight) were rendered neutropenic by treatment with cyclophosphamide (200 mg/kg body weight, intraperitoneal injection) at 2 and 4 days prior to inoculation. Groups of 5 mice were inoculated with 0.05 mL of the bacteria (approx. 10^6 cfu/mL) into the anterior thigh. Each group was treated intravenously two hours post infection with vehicle (phosphate buffered saline) or test compound. The mice were sacrificed at either 6 or 24 hrs after treatment and thighs were collected aseptically. Each thigh was weighed, placed into sterile saline, and homogenized. The tissue homogenates were diluted appropriately for plating on agar plates. Colony counts were recorded (cfu/gram) and compared to control groups.
In vivo efficacy was shown by a decrease in colony count (log cfu/gram of tissue) in the compound-treated animals when compared against the colony count in animals given only the vehicle.

SMILES	Minimum Inhibitory Concentration (MIC) [1]	Minimum Inhibitory Concentration (MIC) [2]	Minimum Inhibitory Concentration (MIC) [3]	Minimum Inhibitory Concentration (MIC) [4]	Minimum Inhibitory Concentration (MIC) [5]	Minimum Inhibitory Concentration (MIC) [6]	Minimum Inhibitory Concentration (MIC) [7]	Kd [8] [nM]	Minimum Inhibitory Concentration (MIC) [9]	Minimum Inhibitory Concentration (MIC) [10]	Colony Count (log cfu/gram) Compound [11] [log cfu/gram]
Cn1cc(NC(=O)c2cc(NC(=O)c3cc(NC(=O)c4ccc(F)cc4F)cn3C)cn2C)cc1C(=O)NCCN1CCCCCC1 [Compound B-18]	+++ (+++ = MIC ≦ 4)	+++ (+++ = MIC ≦ 4)	+++ (+++ = MIC ≦ 4)	+++ (+++ = MIC ≦ 4)	+++ (+++ = MIC ≦ 4)	+++ (+++ = MIC ≦ 4)	+++ (+++ = MIC ≦ 4)	2	+++ (+++ = MIC ≦ 4)	++ (++ = 4 < MIC < 12)	
Cn1cc(NC(=O)c2cc(NC(=O)c3cc(NC(=O)c4ccc(Cl)cc4F)cn3C)cn2C)cc1C(=O)NCCN1CCOCC1 [Compound B-47]	+++ (+++ = MIC ≦ 4)	+++ (+++ = MIC ≦ 4)	+++ (+++ = MIC ≦ 4)		+++ (+++ = MIC ≦ 4)	+++ (+++ = MIC ≦ 4)	+++ (+++ = MIC ≦ 4)		+++ (+++ = MIC ≦ 4)	>32 µg/mL	7.53
CN(C)CCCNC(=O)c1cc(NC(=O)c2cc(NC(=O)c3cc(NC(=O)c4ccc(Cl)cc4F)cn3C)cn2C)cn1C [Compound B-50]		+++ (+++ = MIC ≦ 4)		+++ (+++ = MIC ≦ 4)		+++ (+++ = MIC ≦ 4)	+++ (+++ = MIC ≦ 4)		+++ (+++ = MIC ≦ 4)	+++ (+++ = MIC ≦ 4)	6.58
Cn1cc(NC(=O)c2cc(NC(=O)c3cc(NC(=O)c4ccc(Cl)cc4)cn3C)cn2C)cc1C(=O)NCCN1CCOCC1 [Compound B-56]		+++ (+++ = MIC ≦ 4)		+++ (+++ = MIC ≦ 4)		+++ (+++ = MIC ≦ 4)	+++ (+++ = MIC ≦ 4)		+++ (+++ = MIC ≦ 4)	>32 µg/mL	6.38
Cc1cc(NC(=O)c2cc(NC(=O)c3cc(NC(=O)c4ccc(F)cc4F)cn3C)cn2CCCN(C)C)sn1 [Compound D-3]	+++ (+++ = MIC ≦ 4)	+++ (+++ = MIC ≦ 4)	+++ (+++ = MIC ≦ 4)	+++ (+++ = MIC ≦ 4)	+ (+ = 12 ≦ MIC ≦ 32)	+++ (+++ = MIC ≦ 4)	+++ (+++ = MIC ≦ 4)		+++ (+++ = MIC ≦ 4)	+++ (+++ = MIC ≦ 4)	6.28
Cc1cc(NC(=O)c2cc(NC(=O)c3cc(NC(=O)c4ccc(Cl)cc4F)c[nH]3)cn2CCCN(C)C)sn1 [Compound D-11]	+++ (+++ = MIC ≦ 4)	+++ (+++ = MIC ≦ 4)	+++ (+++ = MIC ≦ 4)	+++ (+++ = MIC ≦ 4)	+++ (+++ = MIC ≦ 4)	+++ (+++ = MIC ≦ 4)	+++ (+++ = MIC ≦ 4)		+++ (+++ = MIC ≦ 4)	+++ (+++ = MIC ≦ 4)	6.25
